From patent US20250320193A1, “OXOISOINDOLINYL SUBSTITUTED PIPERIDINEDIONE DERIVATIVE AND USE THEREOF” (GLUETACS THERAPEUTICS (SHANGHAI) CO., LTD., priority 2022, published 2025)
pIC50: −log10 of the molar value.

How the values were obtained:
[1] = target: GSPT1 (Homo sapiens (Human), UniProt P15170+Q96SW2); test: Western blot, substrate protein expression in hPBMC: GSPT1; format: cell-based; conditions: hPBMC, compound 500 nM, 24 hours, Western blot
Outline: (§1)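 hPBMC, 1×10^6 cells/mL, 24 h compound exposure; RIPA lysis, BCA protein assay, SDS-PAGE, NC membrane immunoblot. Densitometry vs internal control → % protein remaining; degradation % = 100% − remaining; DC50 = conc. at 50% of DMSO band signal.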

[2] = target: IKZF1 (Homo sapiens (Human), UniProt Q13422+Q96SW2); test: Western blot, substrate protein expression in hPBMC: IKZF1; format: cell-based; conditions: hPBMC, compound 500 nM, 24 hours, Western blot
Sequence of IKZF1 (Q13422 whole entry): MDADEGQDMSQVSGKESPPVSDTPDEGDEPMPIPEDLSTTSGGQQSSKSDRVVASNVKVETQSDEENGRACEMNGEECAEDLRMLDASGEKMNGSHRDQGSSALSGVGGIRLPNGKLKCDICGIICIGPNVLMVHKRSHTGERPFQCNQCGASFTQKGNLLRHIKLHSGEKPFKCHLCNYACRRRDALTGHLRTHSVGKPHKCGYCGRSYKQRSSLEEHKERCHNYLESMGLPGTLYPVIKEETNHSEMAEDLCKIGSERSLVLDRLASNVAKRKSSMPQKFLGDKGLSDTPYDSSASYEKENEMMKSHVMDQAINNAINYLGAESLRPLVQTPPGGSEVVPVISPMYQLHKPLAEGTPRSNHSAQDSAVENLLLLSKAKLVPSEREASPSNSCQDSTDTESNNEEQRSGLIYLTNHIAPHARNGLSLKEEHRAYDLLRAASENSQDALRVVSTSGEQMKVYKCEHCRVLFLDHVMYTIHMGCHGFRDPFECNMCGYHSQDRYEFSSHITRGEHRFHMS
Sequence of IKZF1 (Q96SW2 whole entry): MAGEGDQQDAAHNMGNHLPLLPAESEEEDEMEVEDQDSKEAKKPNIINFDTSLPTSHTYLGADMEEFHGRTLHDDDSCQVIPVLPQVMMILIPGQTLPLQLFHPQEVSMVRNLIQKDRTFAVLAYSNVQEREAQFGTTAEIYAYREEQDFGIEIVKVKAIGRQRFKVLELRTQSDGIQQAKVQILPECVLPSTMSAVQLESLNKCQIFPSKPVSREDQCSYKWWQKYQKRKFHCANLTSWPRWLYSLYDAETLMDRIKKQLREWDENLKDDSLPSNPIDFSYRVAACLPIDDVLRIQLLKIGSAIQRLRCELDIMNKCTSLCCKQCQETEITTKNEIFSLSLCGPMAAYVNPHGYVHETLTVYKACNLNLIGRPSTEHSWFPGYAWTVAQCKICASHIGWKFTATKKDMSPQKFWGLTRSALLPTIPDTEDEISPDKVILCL
Sequence of IKZF1 (Q16531 whole entry partner): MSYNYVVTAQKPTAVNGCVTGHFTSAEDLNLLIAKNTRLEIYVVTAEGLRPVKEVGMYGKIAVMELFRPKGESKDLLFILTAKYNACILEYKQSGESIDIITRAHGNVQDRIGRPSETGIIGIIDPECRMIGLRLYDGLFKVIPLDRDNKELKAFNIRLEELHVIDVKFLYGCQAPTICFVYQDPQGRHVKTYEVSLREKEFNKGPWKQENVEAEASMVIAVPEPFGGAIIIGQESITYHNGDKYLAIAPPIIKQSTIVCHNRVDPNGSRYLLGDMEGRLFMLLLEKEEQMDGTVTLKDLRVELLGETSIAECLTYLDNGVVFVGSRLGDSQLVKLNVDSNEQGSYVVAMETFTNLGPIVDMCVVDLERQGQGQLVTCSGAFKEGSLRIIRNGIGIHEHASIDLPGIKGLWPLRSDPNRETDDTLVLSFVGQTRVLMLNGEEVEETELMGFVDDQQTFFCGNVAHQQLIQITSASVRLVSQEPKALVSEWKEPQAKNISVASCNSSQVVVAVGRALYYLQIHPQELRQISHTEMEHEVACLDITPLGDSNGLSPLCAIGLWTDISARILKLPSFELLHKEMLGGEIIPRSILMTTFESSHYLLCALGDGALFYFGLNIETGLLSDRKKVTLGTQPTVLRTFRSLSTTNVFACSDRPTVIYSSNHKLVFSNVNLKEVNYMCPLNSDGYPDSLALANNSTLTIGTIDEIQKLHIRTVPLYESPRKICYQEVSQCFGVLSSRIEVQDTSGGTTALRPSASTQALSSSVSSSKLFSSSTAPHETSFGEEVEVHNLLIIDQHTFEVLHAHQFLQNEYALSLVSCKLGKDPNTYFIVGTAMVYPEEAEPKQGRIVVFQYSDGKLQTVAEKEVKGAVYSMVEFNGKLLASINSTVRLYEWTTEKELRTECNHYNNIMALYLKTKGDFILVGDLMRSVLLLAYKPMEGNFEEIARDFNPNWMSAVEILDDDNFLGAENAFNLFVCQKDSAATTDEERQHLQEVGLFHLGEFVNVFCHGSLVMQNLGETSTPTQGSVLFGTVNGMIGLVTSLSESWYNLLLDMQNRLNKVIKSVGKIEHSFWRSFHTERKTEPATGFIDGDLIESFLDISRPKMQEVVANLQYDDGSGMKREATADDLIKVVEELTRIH
Outline: as §1

[3] = target: IKZF3 (Homo sapiens (Human), UniProt Q96SW2+Q9UKT9); test: Western blot, substrate protein expression in hPBMC: IKZF3; format: cell-based; conditions: hPBMC, compound 500 nM, 24 hours, Western blot
Sequence of IKZF3 (Q9UKT9 whole entry): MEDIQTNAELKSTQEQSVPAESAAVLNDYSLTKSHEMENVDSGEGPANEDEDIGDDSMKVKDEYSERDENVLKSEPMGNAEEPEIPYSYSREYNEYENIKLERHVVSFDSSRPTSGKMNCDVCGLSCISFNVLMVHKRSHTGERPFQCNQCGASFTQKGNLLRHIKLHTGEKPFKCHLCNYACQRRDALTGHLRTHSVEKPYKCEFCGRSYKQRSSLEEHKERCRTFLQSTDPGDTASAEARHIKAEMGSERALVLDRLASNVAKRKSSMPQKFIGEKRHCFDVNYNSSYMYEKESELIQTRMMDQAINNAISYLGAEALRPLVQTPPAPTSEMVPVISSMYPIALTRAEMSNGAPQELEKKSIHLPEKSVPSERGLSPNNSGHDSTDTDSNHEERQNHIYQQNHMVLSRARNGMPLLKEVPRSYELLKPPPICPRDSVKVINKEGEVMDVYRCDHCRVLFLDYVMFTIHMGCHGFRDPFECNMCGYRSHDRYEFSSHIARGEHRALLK
Sequence of IKZF3 (Q96SW2 whole entry): as the sequence (Q96SW2 whole entry) above
Sequence of IKZF3 (Q16531 whole entry partner): as the sequence (Q16531 whole entry partner) above
Outline: as §1

[4] = target: human Cereblon WT GST-tagged protein (Homo sapiens (Human), UniProt Q96SW2); test: CRBN-binding affinity, HTRF (CEREBLON BINDING kit, CISBIO); conditions: HTRF inhibitory activity
Sequence of human Cereblon WT GST-tagged protein (Q96SW2 whole entry): as the sequence (Q96SW2 whole entry) above
Outline: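 Compounds were mixed with GST-tagged human Cereblon WT protein, then with Thalidomide-Red tracer and GST Eu antibody, and binding was read by HTRF. Inhibition rate was calculated from 620 nm emission relative to blank control wells (no protein) and solvent control wells.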

Sequence of GSPT1 (P15170 whole entry): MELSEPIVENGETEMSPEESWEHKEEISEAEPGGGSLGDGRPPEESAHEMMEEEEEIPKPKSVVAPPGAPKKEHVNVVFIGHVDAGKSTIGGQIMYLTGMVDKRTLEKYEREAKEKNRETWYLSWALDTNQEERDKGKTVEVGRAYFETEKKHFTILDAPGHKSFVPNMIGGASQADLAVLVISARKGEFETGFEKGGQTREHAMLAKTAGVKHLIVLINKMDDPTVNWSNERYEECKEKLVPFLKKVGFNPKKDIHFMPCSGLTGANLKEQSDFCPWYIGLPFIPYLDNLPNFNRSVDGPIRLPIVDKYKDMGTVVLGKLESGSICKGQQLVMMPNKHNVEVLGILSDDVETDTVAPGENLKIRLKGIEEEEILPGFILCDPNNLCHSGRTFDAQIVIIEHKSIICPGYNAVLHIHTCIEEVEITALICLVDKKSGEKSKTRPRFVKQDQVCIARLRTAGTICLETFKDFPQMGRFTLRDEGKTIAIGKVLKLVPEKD
Sequence of GSPT1 (Q96SW2 whole entry): as the sequence (Q96SW2 whole entry) above
Sequence of GSPT1 (Q16531 whole entry partner): as the sequence (Q16531 whole entry partner) above

SMILES	pIC50 [4]	substrate protein remaining % GSPT1 [1]	substrate protein remaining % IKZF1 [2]	substrate protein remaining % IKZF3 [3]
O=C1CCC(N2Cc3cc(CN4CCN(C(c5ccccc5)c5ccccc5)CC4C(F)(F)F)c(F)cc3C2=O)C(=O)N1 (stereo not shown) [GT-06097, 3-(5-((4-benzhydryl-2-(trifluoromethyl)piperazin-1-yl)methyl)-6-fluoro-1-oxoisoindolin-2-yl)piperidine-2,6-dione]	6.00 to 6.30	A (A represents 0% ≤ substrate protein remaining % ≤ 50%)	B (B represents substrate protein remaining % > 50%)	B (B represents substrate protein remaining % > 50%)
O=C1CCC(N2C(=O)c3ccc(CN4CCN(C(c5ccccc5)c5cccnc5)CC4)cc3C2=O)C(=O)N1 (stereo not shown) [GT-06114, 2-(2,6-dioxopiperidin-3-yl)-5-((4-(phenyl(pyridin-3-yl)methyl)piperazin-1-yl)methyl) isoindoline-1,3-dione]	5.72 to 6.00	A (A represents 0% ≤ substrate protein remaining % ≤ 50%)	B (B represents substrate protein remaining % > 50%)	B (B represents substrate protein remaining % > 50%)
O=C1CCC(N2Cc3cccc(CN4CCN(C(c5cccc(F)c5)c5cccc(F)c5)CC4)c3C2=O)C(=O)N1 (stereo not shown) [GT-06117, 3-(7-((4-(bis(3-fluorophenyl)methyl)piperazin-1-yl)methyl)-1-oxoisoindolin-2-yl)piperidine-2,6-dione]	6.00 to 6.30	A (A represents 0% ≤ substrate protein remaining % ≤ 50%)	B (B represents substrate protein remaining % > 50%)	B (B represents substrate protein remaining % > 50%)
O=C1CCC(N2C(=O)c3ccc(C(=O)N4CCN(C(c5ccccc5F)c5ccccc5F)CC4)cc3C2=O)C(=O)N1 (stereo not shown) [GT-06141, 5-(4-(bis(2-fluorophenyl)methyl)piperazine-1-carbonyl)-2-(2,6-dioxopiperidin-3-yl) isoindoline-1,3-dione]	6.00 to 6.30	A (A represents 0% ≤ substrate protein remaining % ≤ 50%)	B (B represents substrate protein remaining % > 50%)	B (B represents substrate protein remaining % > 50%)

Continued, in another order:

pIC50 [4]	SMILES	substrate protein remaining % GSPT1 [1]	substrate protein remaining % IKZF1 [2]	substrate protein remaining % IKZF3 [3]
6.00 to 6.30	O=C1CCC(N2Cc3cc(C(=O)N4CCN(C(c5ccccc5)c5cccnc5)CC4)ccc3C2=O)C(=O)N1 (stereo not shown) [GT-06142, 3-(1-oxo-5-(4-(phenyl(pyridin-3-yl)methyl)piperazine-1-carbonyl)isoindolin-2-yl)piperidine-2,6-dione]	A (A represents 0% ≤ substrate protein remaining % ≤ 50%)	B (B represents substrate protein remaining % > 50%)	B (B represents substrate protein remaining % > 50%)
> 6.30	O=C1CCC(N2Cc3cc(C(=O)N4CCN(C(c5cccc(F)c5)c5cccc(F)c5)CC4)cc(F)c3C2=O)C(=O)N1 (stereo not shown) [GT-06147, 3-(5-(4-(bis(3-fluorophenyl)methyl)piperazine-1-carbonyl)-7-fluoro-1-oxoisoindolin-2-yl)piperidine-2,6-dione]	A (A represents 0% ≤ substrate protein remaining % ≤ 50%)	B (B represents substrate protein remaining % > 50%)	B (B represents substrate protein remaining % > 50%)
> 6.30	O=C1CCC(N2Cc3c(C(=O)N4CCN(C(c5cccc(F)c5)c5cccc(F)c5)CC4)cccc3C2=O)C(=O)N1 (stereo not shown) [GT-06148, 3-(4-(4-(bis(3-fluorophenyl)methyl)piperazine-1-carbonyl)-1-oxoisoindolin-2-yl)piperidine-2,6-dione]	A (A represents 0% ≤ substrate protein remaining % ≤ 50%)	B (B represents substrate protein remaining % > 50%)	B (B represents substrate protein remaining % > 50%)
